US20070190628A1, “Yeast food composition for fuel ethanol production” (priority 2006, published 2007)

How the values were obtained:
Assay type in all cases: cell-based, Saccharomyces cerevisiae
active dry yeast “z” [1] = experiment: Scaled batch fermentation (4 L) of normal gravity corn mash: fermentation time and ethanol production; details: 4 L batch
Experimental: The fermentation rate in each nutrient-amended corn mash was determined by following the disappearance of dissolved solids by analysis of each sample collected for determination of yeast biomass production, with a digital density meter analyzer (model DMA-45, Anton Paar KG, Graz, Austria) maintained at 20° C. The amounts of ethanol produced during fermentation of each nutrient-amended corn mash were determined by measuring the amount of NADH+H^+ produced after ethanol was converted to acetaldehyde by alcohol dehydrogenase (ADH; Sigma Chemical Co.). An aliquot of each sample was collected for determination of yeast biomass production and diluted to 1:500. […] The absorbance of each tube was then measured at 340 nm after 15 min of incubation using water as the blank. To determine the amount of ethanol produced, a standard curve (ethanol concentration versus absorbance) was prepared using a standard 10% (w/v) ethanol preparation diluted to 1:500 and then diluted further to produce range of ethanol concentrations from 0 to 20 μg in the assay above. The linear equation (y=mx+b) obtained from the plot was used to calculate the amount of ethanol in the test solutions, where y was the absorbance and x was the amount (μg) of ethanol. […] Fermentation rates and ethanol production were determined by repeated sampling and sample processing at specific time intervals as described in Example 1.

active dry yeast “b” = experiment: Fermentation performance of commercial active dry yeasts in normal gravity corn mash; details: strain “b”
Experimental: The effects of the defined urea plus salts-based yeast food on fermentation performance of seven commercial active dry yeasts currently used by the fuel alcohol industry (Bellisimi et al., 2005, Am. Soc. Brew. Chem. J. Vol. 63, pp. 107-112) and designated herein as strains “b”, “d”, “e”, “w”, “x”, “y”, and “z”, were assessed in normal gravity corn mash prepared as described in Example 1. The commercial active dry yeasts were assessed with the following corn mash supplanted as follows: (a) 8 mM urea (control), or (b) 1% yeast extract, or (c) 8 mM urea supplemented with the defined urea plus salts yeast food of the present invention. The fermentation methods were followed as outlined in Example 4. Fermentation rates were determined by repeated sampling and sample processing at specific time intervals as described in Example 1.

active dry yeast “z” [2] = experiment: Fermentation of very high gravity corn mash with nutrient supplements (Example 4)
Experimental: The effects of the optimized defined urea plus salts-based nutrient supplement, i.e., defined yeast food, developed in Example 3 for corn mash fermentations, were assessed by comparisons of fermentation rates and ethanol production in normal gravity corn mashes and very high gravity corn mashes that were (a) supplemented with 16 mM urea only, or (b) yeast extract, or (c) supplemented with 16 mM urea plus the defined yeast food from Example 3 which in this set of studies, contained 1.6 g/L (NH4)2HPO4, 0.32 g/L (NH4)2SO4, 0.049 g/L MgSO4.7H2O, and 0.273 mg/L ZnSO4.7H2O.
Normal density corn mashes were prepared as described in Example 1 and were determined to contain about 18-20 g dissolved solids per 100 mL mash as determined by density meter analysis. […] The mash thus prepared contained 30-32 g of dissolved solids/100 mL as determined by density meter analysis. […]
Each study was commenced by removing fermentors containing either normal gravity corn mash or very high gravity corn mash from 4° C. storage, connecting them to 30° C. water bath circulators and continually mixing the corn mash contents therein until the temperature of each mash was 30° C. […] Fermentation performance in all treatments was assessed by repeated sampling and analyses of the mashes during the fermentation periods as described in Example 1.

NC(N)=O [urea]
maximum ethanol production (active dry yeast “z” [1]): 11 % v/v
time within which fermentation was completed (active dry yeast “z” [1]): ≤ 48 h
Fermentation rate (active dry yeast “b”; normal gravity corn mash): 0.73 ± 0.04 g/100 mL/hr
Fermentation time (active dry yeast “b”; complete disappearance of 20 g of dissolved solids/100 mL): 72 h
time after which fermentation became “stuck” (active dry yeast “z” [2]): 72 h
